Results from US6821981B2, “Azaheterocyclylmethyl derivatives of 2,3-dihydro-1,4-dioxino[2,3-f]-quinoline as 5-HT1A antagonists” (Wyeth, priority 2001, dated 2004).
Structures can show the parent of a compound that is named as a salt. Where two headings read alike, the source gives them in different places.

Experiments:
[1] = molecular target: T1, cloned human 5-HT1A receptors (Homo sapiens, UniProt P08908); assay: 35S-GTPγS binding assay, antagonist activity versus 8-OH-DPAT; format: biochemical; conditions: for 5-HT1A Function Imax (maximum inhibitory effect): value in parentheses after IC50
T1 construct: expressed in transfected cells
T1 sequence (P08908 1-422): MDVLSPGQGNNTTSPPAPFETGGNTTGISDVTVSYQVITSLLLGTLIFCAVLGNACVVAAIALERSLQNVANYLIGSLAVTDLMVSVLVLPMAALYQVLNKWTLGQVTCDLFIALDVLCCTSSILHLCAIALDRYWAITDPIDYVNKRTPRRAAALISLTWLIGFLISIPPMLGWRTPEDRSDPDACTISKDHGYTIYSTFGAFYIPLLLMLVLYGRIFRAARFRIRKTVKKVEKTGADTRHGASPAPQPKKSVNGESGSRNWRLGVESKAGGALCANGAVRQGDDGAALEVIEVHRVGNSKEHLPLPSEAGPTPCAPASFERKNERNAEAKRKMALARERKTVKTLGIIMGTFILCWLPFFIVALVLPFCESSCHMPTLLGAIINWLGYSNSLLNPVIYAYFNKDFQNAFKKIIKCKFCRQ
Method: Antagonist activity at 5-HT1A receptors was established by using a ^35S-GTPγS binding assay similar to that used by Lazareno and Birdsall (Br. J. Pharmacol. 109: 1120, 1993), in which the test compound's ability to affect the binding of ^35S-GTPγS to membranes containing cloned human 5-HT1A receptors was determined. Agonists produce an increase in binding whereas antagonists produce no increase but rather reverse the effects of the standard agonist 8-OH-DPAT. The test compound's maximum inhibitory effect is represented as the Imax, while its potency is defined by the IC50.

human 5-HT1A receptors = molecular target: T2, human 5-HT1A receptors (Homo sapiens, UniProt P08908); assay: [3H] 8-OH-DPAT displacement from 5-HT1A receptor; format: binding
T2 construct: expressed in transfected cells; host or cells: CHO cells
T2 sequence (P08908 1-422): T1 sequence (P08908 1-422)
Description: High affinity for the serotonin 5-HT1A receptor was established by testing the claimed compound's ability to displace [^3H] 8-OH-DPAT (dipropylaminotetralin) from the 5-HT1A serotonin receptor following a modification of the procedure of Hall et al., J. Neurochem. 44, 1685 (1985) which utilizes CHO cells stably transfected with human 5-HT1A receptors.

[2] = reversal of the effects of the standard agonist 8-OH-DPAT on 35S-GTPγS binding, read-out: 5-HT1A Function IC50
[3] = CHO cells stably transfected with human 5-HT1A receptors, [3H] 8-OH-DPAT, read-out: 5-HT1A Receptor Affinity KI

Compound | melting point | Ki (human 5-HT1A receptors; [3]) | further results
Cc1ccc2c3c(ccc2n1)OCC(CN1CCC2(CC1)C(=O)NCN2c1ccccc1)O3 (stereo not shown) (as salt: fumarate) (hydrate or solvate) [Example 2, 8-{[8-Methyl-2,3-dihydro[1,4]dioxino[2,3-f]quinolin-2-yl]methyl}-1-phenyl-1,3,8-triazaspiro[4.5]decan-4-one] | 199 to 201 °C | – | –
Cc1ccc2c3c(ccc2n1)OC[C@H](CN1CCC(n2c(=O)[nH]c4ccccc42)CC1)O3 (as salt: fumarate) (hydrate or solvate) [Example 3, 1-(1-{[8-Methyl-2,3-dihydro[1,4]dixino[2,3-f]quinlin-2-yl]methyl}piperidin-4-yl)-1,3-dihydro-2H-benzimidazol-2-one] | 194 to 196 °C | – | –
Cc1ccc2c3c(ccc2n1)OCC(CN1CCC(C(=O)c2ccc(F)cc2)CC1)O3 (stereo not shown) (as salt: fumarate) (hydrate or solvate) [Example 5, (4-Fluorophenyl)(1-{[8-methyl-2,3-dihydro[1,4]dioxino[2,3-f]quinolin-2-yl]methyl}-4-piperidinyl)methanone] | 206 to 207 °C | – | –
Cc1ccc2c3c(ccc2n1)OCC(CN1CCC(O)(c2cccc(C(F)(F)F)c2)CC1)O3 (stereo not shown) (as salt: fumarate) (hydrate or solvate) [Example 6, 1-{[8-Methyl-2,3-dihydro[1,4]dioxino[2,3-f]quinolin-2-yl]methyl}-4-[3-(trifluoromethyl)phenyl]-4-piperidinol] | 133 to 135 °C | – | –
Cc1ccc2c3c(ccc2n1)OCC(CN1CC=C(c2ccccc2)CC1)O3 (stereo not shown) (as salt: fumarate) (hydrate or solvate) [Example 8, 8-Methyl-2-{[4-phenyl-3,6-dihydro-1(2H)-pyridinyl]methyl}-2,3-dihydro[1,4]dioxino[2,3-f]quinoline] | 185 to 188 °C | – | –
CCc1ccc2c3c(ccc2n1)OCC(CN1CCC2(CC1)C(=O)NCN2c1ccccc1)O3 (stereo not shown) (as salt: fumarate) (hydrate or solvate) [Example 9, 8-{[8-Ethyl-2,3-dihydro[1,4]dioxino[2,3-f]quinolin-2-yl]methyl}-1-phenyl-1,3,8-triazaspiro[4.5]decan-4-one] | 207 to 209 °C | – | –
O=C1NCN(c2ccccc2)C12CCN(CC1COc3ccc4ncccc4c3O1)CC2 (stereo not shown) (as salt: fumarate) [Example 1, 8-[2,3-Dihydro[1,4]dioxino[2,3-f]quinolin-2-ylmethyl]-1-phenyl-1,3,8-triazaspiro[4.5]decan-4-one] | 170 °C | – | –
Cc1ccc2c3c(ccc2n1)OCC(CN1CCCCC1)O3 (stereo not shown) (as salt: hydrochloride) (hydrate or solvate) [Example 4, 8-Methyl-2-(piperidin-1-ylmethyl)-2,3-dihydro[1,4]dioxino[2,3-f]quinoline] | 278 to 280 °C | – | –
Cc1ccc2c3c(ccc2n1)OCC(CN1CCC(C#N)(c2ccccc2)CC1)O3 (stereo not shown) (as salt: salt) [Example 7, 1-{[8-Methyl-2,3-dihydro[1,4]dioxino[2,3-f]quinolin-2-yl]methyl}-4-phenyl-4-piperidinecarbonitrile] | 185 to 187 °C | – | –
O=C1NCN(c2ccccc2)C12CCN(CC1COc3ccc4ncccc4c3O1)CC2 (stereo not shown) [Example 1, 8-[2,3-Dihydro[1,4]dioxino[2,3-f]quinolin-2-ylmethyl]-1-phenyl-1,3,8-triazaspiro[4.5]decan-4-one] | – | 1.44 nM | IC50 [1, 2]: 55 nM; 5-HT1A Function Imax (maximum inhibitory effect) [1]: 100
Cc1ccc2c3c(ccc2n1)OCC(CN1CCC2(CC1)C(=O)NCN2c1ccccc1)O3 (stereo not shown) [Example 2, 8-{[8-Methyl-2,3-dihydro[1,4]dioxino[2,3-f]quinolin-2-yl]methyl}-1-phenyl-1,3,8-triazaspiro[4.5]decan-4-one] | – | 1.79 nM | IC50 [1, 2]: 64 nM; 5-HT1A Function Imax (maximum inhibitory effect) [1]: 100
Cc1ccc2c3c(ccc2n1)OC[C@H](CN1CCC(n2c(=O)[nH]c4ccccc42)CC1)O3 [Example 3, 1-(1-{[8-Methyl-2,3-dihydro[1,4]dixino[2,3-f]quinlin-2-yl]methyl}piperidin-4-yl)-1,3-dihydro-2H-benzimidazol-2-one] | – | 3.08 nM | IC50 [1, 2]: 66 nM; 5-HT1A Function Imax (maximum inhibitory effect) [1]: 85.0
Cc1ccc2c3c(ccc2n1)OCC(CN1CCCCC1)O3 (stereo not shown) [Example 4, 8-Methyl-2-(piperidin-1-ylmethyl)-2,3-dihydro[1,4]dioxino[2,3-f]quinoline] | – | 51 nM | IC50 [1, 2]: 483 nM; 5-HT1A Function Imax (maximum inhibitory effect) [1]: 100
Cc1ccc2c3c(ccc2n1)OCC(CN1CCC(C(=O)c2ccc(F)cc2)CC1)O3 (stereo not shown) [Example 5, (4-Fluorophenyl)(1-{[8-methyl-2,3-dihydro[1,4]dioxino[2,3-f]quinolin-2-yl]methyl}-4-piperidinyl)methanone] | – | 18.5 nM | –
Cc1ccc2c3c(ccc2n1)OCC(CN1CCC(O)(c2cccc(C(F)(F)F)c2)CC1)O3 (stereo not shown) [Example 6, 1-{[8-Methyl-2,3-dihydro[1,4]dioxino[2,3-f]quinolin-2-yl]methyl}-4-[3-(trifluoromethyl)phenyl]-4-piperidinol] | – | 6.94 nM | –
Cc1ccc2c3c(ccc2n1)OCC(CN1CCC(C#N)(c2ccccc2)CC1)O3 (stereo not shown) [Example 7, 1-{[8-Methyl-2,3-dihydro[1,4]dioxino[2,3-f]quinolin-2-yl]methyl}-4-phenyl-4-piperidinecarbonitrile] | – | – | IC50 [1]: 445 nM; 5-HT1A Function Imax (maximum inhibitory effect) [1]: 50; Ki (human 5-HT1A receptors): 76.1 nM
Cc1ccc2c3c(ccc2n1)OCC(CN1CC=C(c2ccccc2)CC1)O3 (stereo not shown) [Example 8, 8-Methyl-2-{[4-phenyl-3,6-dihydro-1(2H)-pyridinyl]methyl}-2,3-dihydro[1,4]dioxino[2,3-f]quinoline] | – | 7.91 nM | –
CCc1ccc2c3c(ccc2n1)OCC(CN1CCC2(CC1)C(=O)NCN2c1ccccc1)O3 (stereo not shown) [Example 9, 8-{[8-Ethyl-2,3-dihydro[1,4]dioxino[2,3-f]quinolin-2-yl]methyl}-1-phenyl-1,3,8-triazaspiro[4.5]decan-4-one] | – | 2.79 nM | –
